Assay results as given in PubChem BioAssay AID1259407 (Chemical Carcinogenesis Research Information System (CCRIS), 2018).
Active and inactive are the calls of the source. The rule behind the calls is not given here.

System: CCRIS mutagenicity, Ames/micronucleus/aberration tests
Assay: CCRIS mutagenicity studies
Settings: Test System: AMES SALMONELLA TYPHIMURIUM

Measured: mutagenic call

Oc1ccc(Cl)cc1Sc1cc(Cl)ccc1O
inactive: Strain/Indicator: TA97, Metabolic Activation: HAMSTER, LIVER, S-9, AROCLOR 1254 (10 OR 30%), Method: PREINCUBATION inactive; negative | Strain/Indicator: TA97, Metabolic Activation: NONE, Method: PREINCUBATION inactive; negative | Strain/Indicator: TA97, Metabolic Activation: RAT, LIVER, S-9, AROCLOR 1254 (10 OR 30%), Method: PREINCUBATION inactive; negative | Strain/Indicator: TA98, Metabolic Activation: HAMSTER, LIVER, S-9, AROCLOR 1254 (10 OR 30%), Method: PREINCUBATION inactive; negative | Strain/Indicator: TA98, Metabolic Activation: NONE, Method: PREINCUBATION inactive; negative | Strain/Indicator: TA98, Metabolic Activation: RAT, LIVER, S-9, AROCLOR 1254 (10 OR 30%), Method: PREINCUBATION inactive; negative | Strain/Indicator: TA100, Metabolic Activation: HAMSTER, LIVER, S-9, AROCLOR 1254 (10 OR 30%), Method: PREINCUBATION inactive; negative | Strain/Indicator: TA100, Metabolic Activation: NONE, Method: PREINCUBATION inactive; negative | Strain/Indicator: TA100, Metabolic Activation: RAT, LIVER, S-9, AROCLOR 1254 (10 OR 30%), Method: PREINCUBATION inactive; negative | Strain/Indicator: TA1535, Metabolic Activation: HAMSTER, LIVER, S-9, AROCLOR 1254 (10 OR 30%), Method: PREINCUBATION inactive; negative | Strain/Indicator: TA1535, Metabolic Activation: NONE, Method: PREINCUBATION inactive; negative | Strain/Indicator: TA1535, Metabolic Activation: RAT, LIVER, S-9, AROCLOR 1254 (10 OR 30%), Method: PREINCUBATION inactive; negative

C[C@H]1CCC[C@H](O)CCCCCc2cc(O)cc(O)c2C(=O)O1
inactive: Strain/Indicator: TA98, Metabolic Activation: NONE, Method: STANDARD PLATE inactive; negative | Strain/Indicator: TA98, Metabolic Activation: RAT, LIVER, S-9, Method: STANDARD PLATE inactive; negative | Strain/Indicator: TA100, Metabolic Activation: NONE, Method: STANDARD PLATE inactive; negative; toxicity at 1000 ug/plate | Strain/Indicator: TA100, Metabolic Activation: RAT, LIVER, S-9, Method: STANDARD PLATE inactive; negative | Strain/Indicator: TA1535, Metabolic Activation: NONE, Method: STANDARD PLATE inactive; negative | Strain/Indicator: TA1535, Metabolic Activation: RAT, LIVER, S-9, Method: STANDARD PLATE inactive; negative | Strain/Indicator: TA1537, Metabolic Activation: NONE, Method: STANDARD PLATE inactive; negative; toxicity at 1000 ug/plate | Strain/Indicator: TA1537, Metabolic Activation: RAT, LIVER, S-9, Method: STANDARD PLATE inactive; negative; toxicity at 1000 ug/plate | Strain/Indicator: TA1538, Metabolic Activation: NONE, Method: STANDARD PLATE inactive; negative | Strain/Indicator: TA1538, Metabolic Activation: RAT, LIVER, S-9, Method: STANDARD PLATE inactive; negative; toxicity at 1000 ug/plate
